Experimental data from publication PMC7206119, “RIP1 inhibition blocks inflammatory diseases but not tumor growth or metastases” (Cell Death and Differentiation, 2019).

Key:
Assay in all cases: biochemical
Set-up in all cases: DiscoverX kinase panel, active-site competition binding (KINOMEscan type), percent of control at one concentration
Conditions in all cases: competition binding, percent of control
FAK = target: T1, FAK (Homo sapiens, UniProt Q05397)
T1 construct: gene PTK2

DDR2 = DDR2 (Homo sapiens, UniProt Q16832)
EPHB3 = EPHB3 (Homo sapiens, UniProt P54753)
FLT3(R834Q) = FLT3(R834Q) (Homo sapiens, UniProt P36888, R834Q)
PIM1 = PIM1 (Homo sapiens, UniProt P11309)
CSNK1E = CSNK1E (Homo sapiens, UniProt P49674)
EPHA6 = EPHA6 (Homo sapiens, UniProt Q9UF33)
EPHA6, sequence (Q9UF33 whole entry): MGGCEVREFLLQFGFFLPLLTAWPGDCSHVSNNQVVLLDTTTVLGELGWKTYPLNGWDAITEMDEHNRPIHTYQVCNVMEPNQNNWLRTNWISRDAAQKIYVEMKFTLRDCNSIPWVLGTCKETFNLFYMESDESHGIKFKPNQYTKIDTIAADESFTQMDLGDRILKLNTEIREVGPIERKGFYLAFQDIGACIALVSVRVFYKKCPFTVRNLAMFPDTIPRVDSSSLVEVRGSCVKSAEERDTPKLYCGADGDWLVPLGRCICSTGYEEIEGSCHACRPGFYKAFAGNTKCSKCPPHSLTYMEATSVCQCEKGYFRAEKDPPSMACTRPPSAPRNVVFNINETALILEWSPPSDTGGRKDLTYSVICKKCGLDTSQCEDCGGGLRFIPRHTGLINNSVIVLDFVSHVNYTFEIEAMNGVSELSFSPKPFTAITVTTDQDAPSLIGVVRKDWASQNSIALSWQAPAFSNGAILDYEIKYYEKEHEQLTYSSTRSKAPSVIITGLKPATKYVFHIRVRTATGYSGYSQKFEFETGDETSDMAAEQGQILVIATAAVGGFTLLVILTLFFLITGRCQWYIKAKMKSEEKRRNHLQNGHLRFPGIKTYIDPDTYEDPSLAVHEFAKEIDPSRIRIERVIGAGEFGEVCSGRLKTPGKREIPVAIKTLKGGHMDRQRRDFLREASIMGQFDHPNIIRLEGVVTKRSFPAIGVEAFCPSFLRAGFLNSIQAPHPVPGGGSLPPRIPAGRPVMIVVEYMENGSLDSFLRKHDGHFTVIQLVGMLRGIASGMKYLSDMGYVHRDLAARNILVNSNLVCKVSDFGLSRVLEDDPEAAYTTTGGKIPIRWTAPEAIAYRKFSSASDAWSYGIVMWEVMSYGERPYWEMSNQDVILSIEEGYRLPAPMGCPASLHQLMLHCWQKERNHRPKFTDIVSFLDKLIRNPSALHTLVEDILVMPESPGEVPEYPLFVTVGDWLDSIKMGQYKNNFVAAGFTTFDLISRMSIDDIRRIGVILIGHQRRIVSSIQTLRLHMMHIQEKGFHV

QSK = target: T2, QSK (Homo sapiens, UniProt Q9Y2K2)
T2 construct: gene SIK3

MARK2 = MARK2 (Homo sapiens, UniProt Q7KZI7)
MARK2, sequence (Q7KZI7 whole entry): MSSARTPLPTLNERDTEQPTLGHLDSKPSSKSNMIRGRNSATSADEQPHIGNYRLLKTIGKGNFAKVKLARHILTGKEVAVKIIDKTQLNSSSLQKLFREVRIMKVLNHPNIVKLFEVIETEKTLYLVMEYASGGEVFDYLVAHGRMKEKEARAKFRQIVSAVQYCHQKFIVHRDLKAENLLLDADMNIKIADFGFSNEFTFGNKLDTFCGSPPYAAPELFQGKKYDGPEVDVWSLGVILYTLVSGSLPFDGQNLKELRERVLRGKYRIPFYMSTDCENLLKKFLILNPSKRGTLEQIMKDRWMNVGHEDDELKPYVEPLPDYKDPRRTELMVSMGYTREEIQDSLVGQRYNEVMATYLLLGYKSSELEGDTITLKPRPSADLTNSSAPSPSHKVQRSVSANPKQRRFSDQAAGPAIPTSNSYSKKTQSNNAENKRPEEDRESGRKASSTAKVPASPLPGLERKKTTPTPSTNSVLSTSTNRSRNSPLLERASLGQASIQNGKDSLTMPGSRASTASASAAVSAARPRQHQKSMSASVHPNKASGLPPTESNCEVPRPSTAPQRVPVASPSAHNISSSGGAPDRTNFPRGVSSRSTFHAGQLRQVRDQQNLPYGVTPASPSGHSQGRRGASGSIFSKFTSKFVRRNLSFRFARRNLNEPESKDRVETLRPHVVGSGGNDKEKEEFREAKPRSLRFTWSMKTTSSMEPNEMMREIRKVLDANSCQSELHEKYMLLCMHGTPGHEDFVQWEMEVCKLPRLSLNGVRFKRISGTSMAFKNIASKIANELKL

TEC = TEC (Homo sapiens, UniProt P42680)
EIF2AK1 = EIF2AK1 (Homo sapiens, UniProt Q9BQI3)
EIF2AK1, sequence (Q9BQI3 whole entry): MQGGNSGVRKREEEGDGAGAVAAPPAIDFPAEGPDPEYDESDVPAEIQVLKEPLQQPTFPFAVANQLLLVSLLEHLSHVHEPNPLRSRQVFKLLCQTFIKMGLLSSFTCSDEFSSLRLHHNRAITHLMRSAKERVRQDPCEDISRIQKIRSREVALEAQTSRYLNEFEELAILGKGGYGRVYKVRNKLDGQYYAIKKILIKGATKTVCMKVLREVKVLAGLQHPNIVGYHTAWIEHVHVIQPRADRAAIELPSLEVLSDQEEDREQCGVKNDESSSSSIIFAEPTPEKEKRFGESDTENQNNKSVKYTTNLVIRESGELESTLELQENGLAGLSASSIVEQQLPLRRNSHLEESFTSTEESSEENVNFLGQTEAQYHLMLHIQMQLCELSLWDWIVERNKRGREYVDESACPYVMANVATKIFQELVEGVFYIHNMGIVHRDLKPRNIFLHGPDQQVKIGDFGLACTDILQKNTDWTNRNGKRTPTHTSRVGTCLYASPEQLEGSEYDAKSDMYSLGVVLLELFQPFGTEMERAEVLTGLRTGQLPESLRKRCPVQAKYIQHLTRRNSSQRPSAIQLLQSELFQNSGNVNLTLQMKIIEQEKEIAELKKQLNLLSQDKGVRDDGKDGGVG

INSRR = INSRR (Homo sapiens, UniProt P14616)
EPHA5 = EPHA5 (Homo sapiens, UniProt P54756)
EPHA5, sequence (P54756 whole entry): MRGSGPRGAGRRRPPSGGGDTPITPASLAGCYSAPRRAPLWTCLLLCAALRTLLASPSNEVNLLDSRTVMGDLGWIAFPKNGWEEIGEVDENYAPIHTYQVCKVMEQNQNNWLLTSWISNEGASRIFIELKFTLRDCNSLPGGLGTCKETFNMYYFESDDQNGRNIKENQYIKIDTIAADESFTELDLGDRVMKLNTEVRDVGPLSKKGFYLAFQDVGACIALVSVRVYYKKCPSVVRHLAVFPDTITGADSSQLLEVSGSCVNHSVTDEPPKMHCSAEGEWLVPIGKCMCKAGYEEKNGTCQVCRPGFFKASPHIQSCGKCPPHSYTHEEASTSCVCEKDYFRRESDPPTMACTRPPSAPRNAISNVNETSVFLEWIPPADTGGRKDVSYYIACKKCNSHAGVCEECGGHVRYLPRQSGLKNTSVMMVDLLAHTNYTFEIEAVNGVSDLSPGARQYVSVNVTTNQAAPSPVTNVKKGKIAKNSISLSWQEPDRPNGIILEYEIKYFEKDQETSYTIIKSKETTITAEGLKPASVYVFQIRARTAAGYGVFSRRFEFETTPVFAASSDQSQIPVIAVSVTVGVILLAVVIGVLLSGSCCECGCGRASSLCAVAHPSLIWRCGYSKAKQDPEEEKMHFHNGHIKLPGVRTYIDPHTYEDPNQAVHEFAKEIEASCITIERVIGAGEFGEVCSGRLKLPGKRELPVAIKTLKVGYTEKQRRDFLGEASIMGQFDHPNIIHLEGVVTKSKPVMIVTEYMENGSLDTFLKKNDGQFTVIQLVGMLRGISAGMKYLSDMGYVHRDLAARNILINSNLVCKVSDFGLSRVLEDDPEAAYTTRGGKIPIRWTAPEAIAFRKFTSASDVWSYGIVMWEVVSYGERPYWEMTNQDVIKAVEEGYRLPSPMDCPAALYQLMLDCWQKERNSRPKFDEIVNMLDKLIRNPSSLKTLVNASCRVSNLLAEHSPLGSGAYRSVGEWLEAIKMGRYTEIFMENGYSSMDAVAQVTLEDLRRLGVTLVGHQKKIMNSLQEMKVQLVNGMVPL

CDK5 = CDK5 (Homo sapiens, UniProt Q00535)
FLT3(D835V) = FLT3(D835V) (Homo sapiens, UniProt P36888, D835V)
CAMK1 = CAMK1 (Homo sapiens, UniProt Q14012)
MAPKAPK5 = MAPKAPK5 (Homo sapiens, UniProt Q8IW41)
[1] = target: T3, ABL1(F317I)-phosphorylated (Homo sapiens, UniProt P00519, F317I)
T3 construct: phosphorylated

PIP5K1C = PIP5K1C (Homo sapiens, UniProt O60331)
LATS2 = LATS2 (Homo sapiens, UniProt Q9NRM7)
MEK2 = target: T4, MEK2 (Homo sapiens, UniProt P36507)
T4 construct: gene MAP2K2

CAMK2D = CAMK2D (Homo sapiens, UniProt Q13557)
CAMK2D, sequence (Q13557 whole entry): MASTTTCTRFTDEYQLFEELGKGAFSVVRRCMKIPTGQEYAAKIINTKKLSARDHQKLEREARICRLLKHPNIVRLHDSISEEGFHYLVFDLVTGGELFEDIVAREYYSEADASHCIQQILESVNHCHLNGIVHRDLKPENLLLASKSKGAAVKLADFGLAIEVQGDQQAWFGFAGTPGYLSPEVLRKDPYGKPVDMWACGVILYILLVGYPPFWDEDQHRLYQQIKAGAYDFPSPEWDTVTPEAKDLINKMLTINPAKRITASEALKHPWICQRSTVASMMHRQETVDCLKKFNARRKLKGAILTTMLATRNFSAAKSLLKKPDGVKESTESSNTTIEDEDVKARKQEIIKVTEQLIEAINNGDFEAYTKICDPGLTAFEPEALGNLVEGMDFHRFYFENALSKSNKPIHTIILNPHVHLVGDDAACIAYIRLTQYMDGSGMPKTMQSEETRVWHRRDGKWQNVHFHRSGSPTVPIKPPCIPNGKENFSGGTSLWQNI

T1 sequence (Q05397 whole entry): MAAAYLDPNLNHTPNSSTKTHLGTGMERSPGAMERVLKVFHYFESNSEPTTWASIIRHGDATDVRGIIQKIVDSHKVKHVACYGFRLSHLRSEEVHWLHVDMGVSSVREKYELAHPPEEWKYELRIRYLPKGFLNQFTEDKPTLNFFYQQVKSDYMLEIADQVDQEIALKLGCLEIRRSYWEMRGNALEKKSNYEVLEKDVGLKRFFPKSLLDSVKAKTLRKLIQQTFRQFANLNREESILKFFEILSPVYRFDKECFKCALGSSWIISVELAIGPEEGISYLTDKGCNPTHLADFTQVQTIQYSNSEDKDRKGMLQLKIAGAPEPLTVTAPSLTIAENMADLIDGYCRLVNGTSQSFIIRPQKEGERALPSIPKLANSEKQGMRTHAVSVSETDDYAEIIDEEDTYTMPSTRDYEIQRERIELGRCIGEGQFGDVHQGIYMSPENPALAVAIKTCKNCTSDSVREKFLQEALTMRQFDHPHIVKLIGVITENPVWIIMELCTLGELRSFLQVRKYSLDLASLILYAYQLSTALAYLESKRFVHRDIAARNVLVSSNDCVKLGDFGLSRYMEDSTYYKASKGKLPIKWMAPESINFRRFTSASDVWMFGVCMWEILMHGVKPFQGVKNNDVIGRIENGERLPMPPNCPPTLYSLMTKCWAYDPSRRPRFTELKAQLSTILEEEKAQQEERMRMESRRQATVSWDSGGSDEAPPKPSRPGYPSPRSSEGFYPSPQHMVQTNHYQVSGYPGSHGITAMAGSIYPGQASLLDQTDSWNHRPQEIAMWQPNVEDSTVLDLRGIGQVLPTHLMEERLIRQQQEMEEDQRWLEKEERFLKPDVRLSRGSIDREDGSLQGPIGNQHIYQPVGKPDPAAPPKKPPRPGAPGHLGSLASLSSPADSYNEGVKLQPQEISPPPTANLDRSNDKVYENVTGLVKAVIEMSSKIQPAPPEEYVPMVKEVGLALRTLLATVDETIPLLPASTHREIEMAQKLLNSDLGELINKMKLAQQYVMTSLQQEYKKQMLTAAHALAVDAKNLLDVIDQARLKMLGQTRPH

Work on `COc1cc2c(cn1)N(C)C(=O)[C@@H](NC(=O)c1nc3n(n1)[C@H](c1ccccc1)CC3)CC2` [GNE684, (S)-N-((S)-7-methoxy-1-methyl-2-oxo-2,3,4,5-tetrahydro-1H-pyrido[3,4-b]azepin-3-yl)-5-phenyl-6,7-dihydro-5H-pyrrolo[1,2-b][1,2,4]triazole-2-carboxamide] yielded a remaining binding at 10 µM (FAK) of 85%, a remaining binding at 10 µM (DDR2) of 100% and a remaining binding at 10 µM (EPHB3) of 100%. The remaining binding at 10 µM (FLT3(R834Q)) was 100%, the remaining binding at 10 µM (PIM1) was 100% and the remaining binding at 10 µM (CSNK1E) was 74%. It also gave a remaining binding at 10 µM (EPHA6) of 100%, a remaining binding at 10 µM (QSK) of 97% and a remaining binding at 10 µM (MARK2) of 100%. The remaining binding at 10 µM (TEC) was 100%, the remaining binding at 10 µM (EIF2AK1) was 100% and the remaining binding at 10 µM (INSRR) was 92%. For the same compound, the remaining binding at 10 µM (EPHA5) was 100%, the remaining binding at 10 µM (CDK5) was 93% and the remaining binding at 10 µM (FLT3(D835V)) was 88%. It also gave a remaining binding at 10 µM (CAMK1) of 91%, a remaining binding at 10 µM (MAPKAPK5) of 100% and a remaining binding at 10 µM [1] of 100%. For the same compound, the remaining binding at 10 µM (PIP5K1C) was 100%, the remaining binding at 10 µM (LATS2) was 84% and the remaining binding at 10 µM (MEK2) was 80%. It also gave a remaining binding at 10 µM (CAMK2D) of 100%.
